Measurements as given in patent US11572296B1, “Method for extending time of activity of chlorite-based biocides” (priority 2020, dated 2023).

Assays:
bacteria [1] = assay: Antimicrobial activity of oxychloro species (general properties); conditions: treated water, component of the formulation
From the text: The potency and longevity of biocidal activity for this formulation is controlled by varying the ratios of chlorate and acid which provide different profiles of the antimicrobial activities.

bacteria [2] = conditions: properties of oxychloro species; cited from earlier work

Molecule | time range of antimicrobial impact / longevity (bacteria [1]) | Biocidal potency (bacteria [2])
[Na+].[O-][Cl+2]([O-])[O-] [sodium chlorate] | weeks to months | 
sodium chlorite | hours to days | 
Chlorine dioxide [ClO2] | within seconds | 
[O-][Cl+2]([O-])O [ClO3^−, Chlorate ion] |  | low
